Data on 39 molecules can be found in ChEMBL document CHEMBL4421722, “Inhibitors of protein prenyltransferases” (2013).

The species entered for experiment [1] is Rattus norvegicus. In words: Inhibition of rat recombinant geranylgeranyltransferase type I expressed in Escherichia coli assessed as residual enzyme activity for geranylgeranylation of K-Ras4B at 50 uM incubated for 30 mins in presence of [3H]GGPP by scintillation counting assay relative to control.
The species entered for experiment [2] is Rattus norvegicus. In words: Inhibition of rat recombinant geranylgeranyltransferase type I expressed in Escherichia coli assessed as residual enzyme activity for geranylgeranylation of RhoA at 50 uM incubated for 30 mins in presence of [3H]GGPP by scintillation counting assay relative to control.

SMILES strings stand for the structures.

In the case of `COc1ccc([C@@H]2C[C@@H](SCCc3ccccc3)[C@H](C(=O)O)CN2S(=O)(=O)c2ccccc2C)cc1`, the Activity in the experiment listed under Rattus norvegicus [1] was 15.2 to 19.5%; in the experiment filed under Rattus norvegicus [2], 6%. In the same order, the values of `Cc1cccc([C@H]2C(C(=O)O)=CC[C@@H](c3ccc(Cl)cc3)N2S(=O)(=O)c2ccccc2C)c1` are 15.6 to 81.1% and 12.4%. As for `COc1ccc([C@@H]2C[C@@H](Sc3ccc(Cl)cc3)[C@H](C(=O)O)CN2S(=O)(=O)c2ccccc2C)cc1`, the values for the Activity in the experiment listed under Rattus norvegicus [1] and in the experiment listed under Rattus norvegicus [2] were 72.2% and 17.7%, respectively. On to `Cc1ccccc1S(=O)(=O)N1[C@@H](c2ccc(F)cc2)C(C(=O)O)=CC[C@H]1c1ccc(Cl)cc1`, for which the Activity was 15.6 to 28.8% in the experiment filed under Rattus norvegicus [1] and 12.6% in the experiment filed under Rattus norvegicus [2]. In the same order, the values of `Cc1ccccc1S(=O)(=O)N1[C@@H](c2ccc(Cl)cc2)C(C(=O)O)=C[C@H]1CC1CCCC1` are 23.7% and 9.1%.

For the molecule `Cc1ccccc1S(=O)(=O)N1[C@@H](c2cccc(F)c2)C(C(=O)O)=CC[C@H]1c1ccc(Cl)cc1`, the figures for the Activity in the experiment filed under Rattus norvegicus [1] and in the experiment filed under Rattus norvegicus [2] were 5.4 to 13.4% and 3%, respectively. In the same order, the values of `Cc1ccccc1S(=O)(=O)N1C[C@@H](C(=O)O)[C@H](SCCc2ccccc2)C[C@H]1c1ccc(Cl)cc1` are 11.2 to 12.6% and 4.1%.

For the molecule `COc1ccc([C@@H]2C[C@@H](Sc3ccc(Cl)cc3)[C@H](C(=O)O)CN2S(=O)(=O)c2ccccc2)cc1`, the Activity in the experiment listed under Rattus norvegicus [1] came to 88.8%; in the experiment filed under Rattus norvegicus [2] it was 13.4%. The matching figures for `Cc1ccc(S(=O)(=O)N2C[C@@H](C(=O)O)[C@H](Sc3ccccc3)C[C@H]2c2cccc(Cl)c2)cc1`: 87.5% and 8.3%. Regarding `Cc1ccc([C@H]2C(C(=O)O)=CC[C@@H](c3ccc(Cl)c(Cl)c3)N2S(=O)(=O)c2ccc(C)cc2)cc1`, the Activity in the experiment filed under Rattus norvegicus [1] was 12.4 to 17.4%; in the experiment filed under Rattus norvegicus [2] it was 15.6%. Turning to `Cc1ccc([C@@H]2C[C@@H](SCCc3ccccc3)[C@H](C(=O)O)CN2S(=O)(=O)c2ccccc2C)cc1`, the Activity is 10.2 to 13.8% in the experiment filed under Rattus norvegicus [1] and 5.3% in the experiment filed under Rattus norvegicus [2].

`Cc1ccc(S(=O)(=O)N2C[C@@H](C(=O)O)[C@H](Sc3ccc(Cl)cc3)C[C@H]2c2ccccc2)cc1`: the Activity is 64.1% in the experiment filed under Rattus norvegicus [1] and 14.2% in the experiment listed under Rattus norvegicus [2]. With `CCCCCS[C@H]1[C@@H](C(=O)O)[C@H](c2cccc(F)c2)N(S(=O)(=O)c2ccc(C)cc2)[C@@H]1CCCC`, the figures for the Activity in the experiment filed under Rattus norvegicus [1] and in the experiment listed under Rattus norvegicus [2] were 23.5% and 7.1%, respectively.

Consider `CCC[C@@H]1[C@@H](SCCC(=O)OC(C)(C)C)[C@@H](C(=O)O)[C@H](c2ccc(Cl)cc2)N1S(=O)(=O)c1ccc(Cl)cc1`, for which the Activity in the experiment filed under Rattus norvegicus [1] was determined as 21.7%; in the experiment filed under Rattus norvegicus [2], 9.2%. In the case of `CCc1ccc([C@@H]2C[C@@H](SCCc3ccccc3)[C@H](C(=O)O)CN2S(=O)(=O)c2ccc(C)cc2)cc1`, the Activity in the experiment listed under Rattus norvegicus [1] is 2.3 to 3%; in the experiment filed under Rattus norvegicus [2], 2.9%. In the case of `Cc1ccc(S(=O)(=O)N2C[C@@H](C(=O)O)[C@H](Sc3ccc(Cl)cc3)C[C@H]2c2cccc(Cl)c2)cc1`, the Activity came to 111% in the experiment listed under Rattus norvegicus [1] and 6% in the experiment filed under Rattus norvegicus [2]. For `Cc1ccc(S(=O)(=O)N2C[C@@H](C(=O)O)[C@H](SCCc3ccccc3)C[C@H]2c2cccc(Cl)c2)cc1`, the Activity in the experiment filed under Rattus norvegicus [1] is 4.8 to 9.2%; in the experiment listed under Rattus norvegicus [2] it was 3.7%.

As to `Cc1ccc(S(=O)(=O)N2[C@@H](c3cccc(Cl)c3)C(C(=O)O)=CC[C@H]2c2cccc(Cl)c2)cc1`, the Activity was 43.7 to 43.8% in the experiment listed under Rattus norvegicus [1] and 6% in the experiment filed under Rattus norvegicus [2]. Take `Cc1ccc(S(=O)(=O)N2[C@@H](c3ccc(Br)cc3)C(C(=O)O)=CC[C@H]2c2ccc(Cl)c(Cl)c2)cc1`: the Activity in the experiment filed under Rattus norvegicus [1] is 18.7 to 22.8%; in the experiment listed under Rattus norvegicus [2], 11.3%. As for `C=CCS[C@H]1[C@@H](C(=O)O)[C@H](c2ccc(Cl)cc2)N(S(=O)(=O)c2ccccc2C)[C@@H]1CCCC`, the results for the Activity in the experiment filed under Rattus norvegicus [1] and in the experiment filed under Rattus norvegicus [2] were 23.1% and 8.4%, respectively.

With `Cc1ccc(S(=O)(=O)N2[C@@H](c3cccc(Br)c3)C(C(=O)O)=CC[C@H]2c2cccc(Cl)c2)cc1`, the Activity is 11 to 23.1% in the experiment listed under Rattus norvegicus [1] and 7% in the experiment filed under Rattus norvegicus [2].

For the molecule `C=CCS[C@H]1[C@@H](C(=O)O)[C@H](c2ccc(C#N)cc2)N(S(=O)(=O)c2ccc(C)cc2)[C@@H]1C(C)C`, the Activity in the experiment filed under Rattus norvegicus [1] came to 23.1%; in the experiment listed under Rattus norvegicus [2], 9.3%.

For `C=CCS[C@H]1[C@@H](C(=O)O)[C@H](c2ccc(Br)cc2)N(S(=O)(=O)c2ccc(C)cc2)[C@@H]1CCC`, the Activity in the experiment listed under Rattus norvegicus [1] was 9.8%; in the experiment listed under Rattus norvegicus [2] it was 7.5%.

Regarding `C=CCS[C@H]1[C@@H](C(=O)O)[C@H](c2ccc(C#N)cc2)N(S(=O)(=O)c2ccc(C)cc2)[C@@H]1CCCCCC`, the results for the Activity in the experiment filed under Rattus norvegicus [1] and in the experiment filed under Rattus norvegicus [2] were 21.5% and 6%, respectively.

As to `Cc1ccc(S(=O)(=O)N2C[C@@H](C(=O)O)[C@H](SCC(C)C)C[C@H]2c2cccc(Br)c2)cc1`, the values for the Activity in the experiment filed under Rattus norvegicus [1] and in the experiment filed under Rattus norvegicus [2] were 11.4 to 18.8% and 1.3%, respectively. In the same order, the values of `O=C(O)C1=CC[C@@H](c2ccc(Cl)cc2)N(S(=O)(=O)c2ccc(Cl)cc2)[C@H]1c1cccc(Br)c1` are 8.6 to 17.3% and 5%. Consider `Cc1ccc(S(=O)(=O)N2C[C@@H](C(=O)O)[C@H](SCCc3ccccc3)C[C@H]2c2ccc3c(c2)OCO3)cc1`, for which the Activity in the experiment filed under Rattus norvegicus [1] is 6.5 to 9.2%; in the experiment listed under Rattus norvegicus [2], 2%.

As for `Cc1ccc(S(=O)(=O)N2C[C@@H](C(=O)O)[C@H](SCc3ccc(Cl)cc3)C[C@H]2c2ccccc2)cc1`, the results for the Activity in the experiment listed under Rattus norvegicus [1] and in the experiment filed under Rattus norvegicus [2] were 23.7 to 24.8% and 14.2%, respectively. The matching figures for `Cc1ccc(S(=O)(=O)N2C(c3ccc(Cl)c(Cl)c3)CC=C(C(=O)O)C2c2cccc(Cl)c2)cc1` (configuration not stated): 10.7 to 26% and 4.5%. Regarding `C=CCS[C@H]1[C@@H](C(=O)O)[C@H](c2ccc(Cl)cc2)N(S(=O)(=O)c2ccccc2C)[C@@H]1CCC`, the Activity in the experiment filed under Rattus norvegicus [1] was determined as 28.4%; in the experiment filed under Rattus norvegicus [2], 8.9%. The matching figures for `Cc1ccc(S(=O)(=O)N2[C@@H](c3cccc(C)c3)C(C(=O)O)=CC[C@H]2c2cccc(Br)c2)cc1`: 16.1 to 31.9% and 14.3%.

Take `Cc1ccc([C@@H]2CC=C(C(=O)O)[C@H](c3cccc(Br)c3)N2S(=O)(=O)c2ccc(Cl)cc2)cc1`: the Activity was 8.4 to 19.9% in the experiment filed under Rattus norvegicus [1] and 7.4% in the experiment filed under Rattus norvegicus [2]. For the molecule `C=CCS[C@H]1[C@@H](C(=O)O)[C@H](c2ccc(Cl)cc2)N(S(=O)(=O)c2ccccc2C)[C@@H]1CC1CCCC1`, the Activity came out at 22.4% in the experiment filed under Rattus norvegicus [1] and 4.9% in the experiment listed under Rattus norvegicus [2]. As to `CC(C)CCS[C@H]1[C@@H](C(=O)O)[C@H](c2ccc(Cl)cc2)N(S(=O)(=O)c2ccccc2)[C@@H]1C(C)C`, the Activity was found to be 28.1% in the experiment listed under Rattus norvegicus [1] and 5.9% in the experiment filed under Rattus norvegicus [2]. In the same order, the values of `Cc1ccccc1S(=O)(=O)N1C[C@@H](C(=O)O)[C@H](SCc2ccc(Cl)cc2)C[C@H]1c1ccc(Cl)cc1` are 21.3 to 24.5% and 13%. For `COc1ccc([C@@H]2C[C@@H](SCc3ccc(Cl)cc3)[C@H](C(=O)O)CN2S(=O)(=O)c2ccccc2C)cc1`, the Activity in the experiment filed under Rattus norvegicus [1] was 23.9 to 30.9%; in the experiment listed under Rattus norvegicus [2] it was 0.5%. Take `CCCCS[C@@H]1C[C@@H](c2cccc(Br)c2)N(S(=O)(=O)c2ccc(C)cc2)C[C@H]1C(=O)O`: the Activity in the experiment filed under Rattus norvegicus [1] was 5.9 to 9%; in the experiment filed under Rattus norvegicus [2], -1.5%.

`COc1ccc([C@@H]2C[C@@H](Sc3ccc(Cl)cc3)[C@H](C(=O)O)CN2S(=O)(=O)c2ccc(Cl)cc2)cc1`: the Activity in the experiment listed under Rattus norvegicus [1] is 73.2%; in the experiment filed under Rattus norvegicus [2] it was 8.6%. Consider `Cc1ccc(S(=O)(=O)N2C[C@@H](C(=O)O)[C@H](Sc3ccccc3)C[C@H]2c2cccc(Br)c2)cc1`, for which the Activity in the experiment listed under Rattus norvegicus [2] was determined as 2.9%.
